# Measurements taken from patent US20220117938A1, “COMBINATON THERAPY WITH A DON PRODRUG AND AN IMMUNE CHECKPOINT INHIBITOR” (DRACEN PHARMACEUTICALS, INC., priority 2019, published 2022).
# Tested on: CT26.WT tumors
# Assay: Anti-tumor efficacy of Compound 1 by IV and SC routes in the CT26.WT model (Example 8)
# Assay type: in vivo, mice
# Experimental: Female BALB/c mice were inoculated subcutaneously in the right flank with CT26.WT cells for tumor development. Six days after tumor inoculation, mice with tumor sizes ranging from 32-77 mm^3 (average tumor size 56 mm^3) were selected and assigned into 6 groups using stratified randomization with 8 mice per group based upon their tumor volumes. The treatments were started from the day of randomization (defined as D0), Group 1 was treated with Vehicle control, q.d.×5 days on (Mon-Fri)×4 cycles s.c.; Group 2 was treated with Compound 1, 0.7 mpk×5 days on (Mon-Fri)×4 cycles s.c.; Group 3 was treated with Compound 1, 1.4 mpk×5 days on (Mon-Fri)×4 cycles s.c.; Group 4 was treated with Compound 1, 4.5 mpk×3-days on (Mon, Wed, Fri)×4 cycles, iv; Group 5 was treated with Compound 1, 7 mpk×2-days on (Mon,Thu)×4 cycles, iv; Group 6 was treated with Compound 1, 14 mpk×1-day on (Mon)×4 cycles, iv. The tumor sizes were measured three times per week during the treatment. The entire study was terminated on D44 after start of the treatment. All treatments were well-tolerated without any adverse effects or significant body weight loss.
# [1] = Group 2, 0.7 mpk s.c. Mon-Fri x4 cycles
# [2] = Group 2, 0.7 mpk s.c. Mon-Fri x4 cycles, day 16
# [3] = Group 3, 1.4 mpk s.c. Mon-Fri x4 cycles
# [4] = Group 3, 1.4 mpk s.c. Mon-Fri x4 cycles, day 16
# [5] = Group 4, 4.5 mpk iv Mon,Wed,Fri x4 cycles
# [6] = Group 4, 4.5 mpk iv Mon,Wed,Fri x4 cycles, day 16
# [7] = Group 5, 7 mpk iv Mon,Thu x4 cycles
# [8] = Group 5, 7 mpk iv Mon,Thu x4 cycles, day 16
# [9] = Group 6, 14 mpk iv Mon x4 cycles
# [10] = Group 6, 14 mpk iv Mon x4 cycles, day 16
smiles,measurement,setting,value
"CC(=O)N[C@@H](Cc1c[nH]c2ccccc12)C(=O)N[C@@H](CCC(=O)C=[N+]=[N-])C(=O)OC(C)C [Compound 1, Isopropyl (S)-2-((S)-2-acetamido-3-(1H-indol-3-yl)propanamido)-6-diazo-5-oxohexanoate]",ILS,[1],86.1%
same,MST,[1],33.5 days
same,RTV at day 16,[1],4.45 ± 0.74
same,Tumor volume,"Group 2, 0.7 mpk s.c. Mon-Fri x4 cycles, day 0",56 ± 4 mm^3
same,Tumor volume,"Group 2, 0.7 mpk s.c. Mon-Fri x4 cycles, day 2",62 ± 7 mm^3
same,Tumor volume,"Group 2, 0.7 mpk s.c. Mon-Fri x4 cycles, day 4",89 ± 10 mm^3
same,Tumor volume,"Group 2, 0.7 mpk s.c. Mon-Fri x4 cycles, day 7",124 ± 20 mm^3
same,Tumor volume,"Group 2, 0.7 mpk s.c. Mon-Fri x4 cycles, day 9",140 ± 22 mm^3
same,Tumor volume,"Group 2, 0.7 mpk s.c. Mon-Fri x4 cycles, day 11",143 ± 21 mm^3
same,Tumor volume,"Group 2, 0.7 mpk s.c. Mon-Fri x4 cycles, day 14",261 ± 45 mm^3
same,T/C,[2],14.25%
same,TGI,[2],87.81%
same,Tumor volume,[2],259 ± 52 mm^3
same,Tumor volume,"Group 2, 0.7 mpk s.c. Mon-Fri x4 cycles, day 18",308 ± 63 mm^3
same,Tumor volume,"Group 2, 0.7 mpk s.c. Mon-Fri x4 cycles, day 21",407 ± 83 mm^3
same,Tumor volume,"Group 2, 0.7 mpk s.c. Mon-Fri x4 cycles, day 23",522 ± 102 mm^3
same,Tumor volume,"Group 2, 0.7 mpk s.c. Mon-Fri x4 cycles, day 25",648 ± 130 mm^3
same,Tumor volume,"Group 2, 0.7 mpk s.c. Mon-Fri x4 cycles, day 28",1030 ± 194 mm^3
same,Tumor volume,"Group 2, 0.7 mpk s.c. Mon-Fri x4 cycles, day 30",1585 ± 288 mm^3
same,ILS,[3],86.1%
same,MST,[3],33.5 days
same,RTV at day 16,[3],4.94 ± 0.82
same,Tumor volume,"Group 3, 1.4 mpk s.c. Mon-Fri x4 cycles, day 0",56 ± 5 mm^3
same,Tumor volume,"Group 3, 1.4 mpk s.c. Mon-Fri x4 cycles, day 2",55 ± 7 mm^3
same,Tumor volume,"Group 3, 1.4 mpk s.c. Mon-Fri x4 cycles, day 4",70 ± 8 mm^3
same,Tumor volume,"Group 3, 1.4 mpk s.c. Mon-Fri x4 cycles, day 7",107 ± 19 mm^3
same,Tumor volume,"Group 3, 1.4 mpk s.c. Mon-Fri x4 cycles, day 9",118 ± 21 mm^3
same,Tumor volume,"Group 3, 1.4 mpk s.c. Mon-Fri x4 cycles, day 11",150 ± 26 mm^3
same,Tumor volume,"Group 3, 1.4 mpk s.c. Mon-Fri x4 cycles, day 14",235 ± 35 mm^3
same,T/C,[4],15.82%
same,TGI,[4],86.45%
same,Tumor volume,[4],282 ± 52 mm^3
same,Tumor volume,"Group 3, 1.4 mpk s.c. Mon-Fri x4 cycles, day 18",292 ± 49 mm^3
same,Tumor volume,"Group 3, 1.4 mpk s.c. Mon-Fri x4 cycles, day 21",406 ± 85 mm^3
same,Tumor volume,"Group 3, 1.4 mpk s.c. Mon-Fri x4 cycles, day 23",484 ± 103 mm^3
same,Tumor volume,"Group 3, 1.4 mpk s.c. Mon-Fri x4 cycles, day 25",539 ± 119 mm^3
same,Tumor volume,"Group 3, 1.4 mpk s.c. Mon-Fri x4 cycles, day 28",853 ± 163 mm^3
same,Tumor volume,"Group 3, 1.4 mpk s.c. Mon-Fri x4 cycles, day 30",1372 ± 230 mm^3
same,ILS,[5],61.1%
same,MST,[5],29 days
same,RTV at day 16,[5],8.92 ± 1.58
same,Tumor volume,"Group 4, 4.5 mpk iv Mon,Wed,Fri x4 cycles, day 0",56 ± 3 mm^3
same,Tumor volume,"Group 4, 4.5 mpk iv Mon,Wed,Fri x4 cycles, day 2",70 ± 6 mm^3
same,Tumor volume,"Group 4, 4.5 mpk iv Mon,Wed,Fri x4 cycles, day 4",92 ± 11 mm^3
same,Tumor volume,"Group 4, 4.5 mpk iv Mon,Wed,Fri x4 cycles, day 7",126 ± 16 mm^3
same,Tumor volume,"Group 4, 4.5 mpk iv Mon,Wed,Fri x4 cycles, day 9",168 ± 24 mm^3
same,Tumor volume,"Group 4, 4.5 mpk iv Mon,Wed,Fri x4 cycles, day 11",223 ± 40 mm^3
same,Tumor volume,"Group 4, 4.5 mpk iv Mon,Wed,Fri x4 cycles, day 14",427 ± 73 mm^3
same,T/C,[6],28.57%
same,TGI,[6],73.09%
same,Tumor volume,[6],503 ± 94 mm^3
same,Tumor volume,"Group 4, 4.5 mpk iv Mon,Wed,Fri x4 cycles, day 18",648 ± 148 mm^3
same,Tumor volume,"Group 4, 4.5 mpk iv Mon,Wed,Fri x4 cycles, day 21",948 ± 230 mm^3
same,ILS,[7],61.1%
same,MST,[7],29 days
same,RTV at day 16,[7],7.58 ± 1.97
same,Tumor volume,"Group 5, 7 mpk iv Mon,Thu x4 cycles, day 0",56 ± 4 mm^3
same,Tumor volume,"Group 5, 7 mpk iv Mon,Thu x4 cycles, day 2",71 ± 9 mm^3
same,Tumor volume,"Group 5, 7 mpk iv Mon,Thu x4 cycles, day 4",78 ± 11 mm^3
same,Tumor volume,"Group 5, 7 mpk iv Mon,Thu x4 cycles, day 7",142 ± 26 mm^3
same,Tumor volume,"Group 5, 7 mpk iv Mon,Thu x4 cycles, day 9",166 ± 37 mm^3
same,Tumor volume,"Group 5, 7 mpk iv Mon,Thu x4 cycles, day 11",185 ± 45 mm^3
same,Tumor volume,"Group 5, 7 mpk iv Mon,Thu x4 cycles, day 14",395 ± 114 mm^3
same,T/C,[8],24.28%
same,TGI,[8],76.00%
same,Tumor volume,[8],455 ± 131 mm^3
same,Tumor volume,"Group 5, 7 mpk iv Mon,Thu x4 cycles, day 18",518 ± 135 mm^3
same,Tumor volume,"Group 5, 7 mpk iv Mon,Thu x4 cycles, day 21",878 ± 272 mm^3
same,ILS,[9],47.2%
same,MST,[9],26.5 days
same,RTV at day 16,[9],7.02 ± 0.87
same,Tumor volume,"Group 6, 14 mpk iv Mon x4 cycles, day 0",56 ± 5 mm^3
same,Tumor volume,"Group 6, 14 mpk iv Mon x4 cycles, day 2",69 ± 7 mm^3
same,Tumor volume,"Group 6, 14 mpk iv Mon x4 cycles, day 4",78 ± 5 mm^3
same,Tumor volume,"Group 6, 14 mpk iv Mon x4 cycles, day 7",163 ± 24 mm^3
same,Tumor volume,"Group 6, 14 mpk iv Mon x4 cycles, day 9",160 ± 22 mm^3
same,Tumor volume,"Group 6, 14 mpk iv Mon x4 cycles, day 11",204 ± 29 mm^3
same,Tumor volume,"Group 6, 14 mpk iv Mon x4 cycles, day 14",425 ± 72 mm^3
same,T/C,[10],22.49%
same,TGI,[10],78.92%
same,Tumor volume,[10],406 ± 74 mm^3
same,Tumor volume,"Group 6, 14 mpk iv Mon x4 cycles, day 18",578 ± 89 mm^3
same,Tumor volume,"Group 6, 14 mpk iv Mon x4 cycles, day 21",1035 ± 150 mm^3
same,Tumor volume,"Group 6, 14 mpk iv Mon x4 cycles, day 23",1216 ± 177 mm^3
same,Tumor volume,"Group 6, 14 mpk iv Mon x4 cycles, day 25",1684 ± 231 mm^3
